Results: the NIST ThermoML archive (doi:10.1016/j.jct.2007.06.020)
Numbers after ± are expanded uncertainties.

Assay: molar enthalpy of vaporization or sublimation
Conditions: 298.15 K; Liquid; Calvet microcalorimetry

Row | Compound | molar enthalpy [kcal/mol]
1 | N#Cc1cccs1 [2-cyanothiophene] | 11.8 ± 0.526
2 | N#CCc1cccs1 [2-thiopheneacetonitrile] | 14.5 ± 0.621
3 | Cc1ccsc1C#N [3-methylthiophene-2-carbonitrile] | 13 ± 0.574
4 | N#CCc1ccsc1 [3-thiopheneacetonitrile] | 14.6 ± 0.621
5 | N#Cc1ccsc1 [3-thiophenecarbonitrile] | 12.3 ± 0.908
